Laboratory results reported in article PMC7724566, “Prospects for Clinical Development of Stat5 Inhibitor IST5-002: High Transcriptomic Specificity in Prostate Cancer and Low Toxicity In Vivo” (Cancers, 2020).

Experiments:
BRCA2 = assay: qRT-PCR mRNA level; assay type: cell-based, human; conditions: CWR22Pc cells, 6 µM vs. vehicle, 3 days
From the text: (§1) Specifically, significant changes were evident in 21 of 203 genes associated with DNA replication and nuclear division (Figure 3B). Specifically, genes associated with minichromosome maintenance family (MCM2, MCM3, MCM4, MCM5, MCM10) were regulated by both IST5 and shStat5 in PC cells, and were associated with DNA replication and DNA replication initiation process as indicated by the functional module analysis (Figure 3). In addition, suppression of the top genes regulated by IST5 and genetic knockdown of Stat5 was confirmed by quantitative real-time polymerase chain reaction (qRT-PCR) in CWR22Pc cells after 3 days of Stat5 inhibition (Figure 3C). It is important to note that the gene expression changes induced by both shStat5 and IST5 in PC cells described here represent later changes in gene expression networks and the early genes (at 24 h) regulated by shStat5/IST5 might be different.
(§2) Figure 3 Pathway enrichment analysis of genes regulated similarly by IST vs. genetic knockdown of Stat5 in prostate cancer cells. […] (C), mRNA levels of MCM10 and BRCA2 were reduced, determined by quantitative real-time polymerase chain reaction (qRT-PCR), in CWR22Pc cells upon genetic knockdown of Stat5 by lentiviral expression of shStat5 vs. shCtrl or by treatment with IST5 (6 µM) vs. vehicle for 3 days. […]

MCM10 = assay: qRT-PCR mRNA level; assay type: cell-based, human; conditions: CWR22Pc cells, 6 µM vs. vehicle, 3 days
From the text: as §1, §2

[1] = tested on: chronic myeloid leukemia (CML) cells; set-up: method as in PMID 26026053; conditions: cited from earlier work
C57BL/6j mice = assay: Sub-chronic toxicity study (10 days), plasma biochemistry; assay type: in vivo; conditions: daily i.p. 10 days; for A-G Ratio / ALT / AST / Albumin / Alk.Ptase / Bile Acid / Chol / TBIL / Globulin / BUN: plasma; for Globulin: in g/dL (unit assumed); for BUN: in mg/dL (unit assumed)
Method: The sub-chronic toxicity study (10 days) was carried out in C57BL/6J mice (8 weeks) (stock 000664) (n = 10/dose group 5 of each sex). IST5 was administered daily (0, 10, 30 and 100 mg/kg) via i.p. injection. Vehicle (0 mg/kg) group mice received a single i.p. injection of 0.3% hydroxypropyl cellulose. Plasma samples were analyzed for aspartate aminotransferase (AST), alanine aminotransferase (ALT), sorbitol dehydrogenase (SDH), alkaline phosphatase (ALP), γ-lutamyltransferase (GGT), lactate dehydrogenase (LDH), bilirubin (TBIL), protein (TP), glucose (GLU), blood urea nitrogen (BUN), creatinine (CREAT), and electrolytes (Na, K, Cl, Ca, CO2) (Marshfield Labs, WI, USA). A detailed hematological analysis was carried out on the sub-mandibular blood samples of mice collected at the end of the protocol and analyzed for white blood cells, red blood cells, hemoglobin, lymphocyte counts, monocytes, eosinophils and granulocytes. Brain, liver, heart, kidney and spleen were harvested, weighed and fixed in 10% buffered formalin and processed for histopathological analysis. In histopathological analysis, gross morphology and ultra-structural change were assessed. The clinical chemistry parameters measured were the same as those used for the acute toxicity study.

SMILES: O=P(O)(O)OCC1OC(n2cnc3c(NCc4ccccc4)ncnc32)C(O)C1O (stereo not drawn) [IST5]
- mRNA level of BRCA2 (BRCA2): reduced
- mRNA level of MCM10 (MCM10): reduced
- efficacy in CML cells [1]: remarkable efficacy
- BW (C57BL/6j mice; 10 mg/kg): 22.5 ± 1.1 gm
- HCT (C57BL/6j mice; 10 mg/kg): 0.43 ± 0.02 L/L
- A-G Ratio (C57BL/6j mice; 10 mg/kg): 1.93 ± 0.08
- ALT (C57BL/6j mice; 10 mg/kg): 50.4 ± 3.71 U/L
- AST (C57BL/6j mice; 10 mg/kg): 329.9 ± 30.9 U/L
- Albumin (C57BL/6j mice; 10 mg/kg): 2.69 ± 0.05 g/dL
- Alk.Ptase (C57BL/6j mice; 10 mg/kg): 51.3 ± 0.72 U/L
- Bile Acid (C57BL/6j mice; 10 mg/kg): 21.0 ± 12.7 µmol/dL
- Chol (C57BL/6j mice; 10 mg/kg): 65.0 ± 2.09 mg/dL
- TBIL (C57BL/6j mice; 10 mg/kg): 0.26 ± 0.02 mg/dL
- Globulin (C57BL/6j mice; 10 mg/kg): 1.41 ± 0.04
- BUN (C57BL/6j mice; 10 mg/kg): 20.5 ± 0.82
- BW (C57BL/6j mice; 30 mg/kg): 23.5 ± 0.6 gm
- HCT (C57BL/6j mice; 30 mg/kg): 0.45 ± 0.01 L/L
- A-G Ratio (C57BL/6j mice; 30 mg/kg): 1.9 ± 0.11
- ALT (C57BL/6j mice; 30 mg/kg): 45.2 ± 3.76 U/L
- AST (C57BL/6j mice; 30 mg/kg): 336 ± 57.1 U/L
- Albumin (C57BL/6j mice; 30 mg/kg): 2.74 ± 0.07 g/dL
- Alk.Ptase (C57BL/6j mice; 30 mg/kg): 53.0 ± 1.93 U/L
- Bile Acid (C57BL/6j mice; 30 mg/kg): 2.39 ± 0.32 µmol/dL
- Chol (C57BL/6j mice; 30 mg/kg): 70.3 ± 1.38 mg/dL
- TBIL (C57BL/6j mice; 30 mg/kg): 0.21 ± 0.01 mg/dL
- Globulin (C57BL/6j mice; 30 mg/kg): 1.47 ± 0.07
- BUN (C57BL/6j mice; 30 mg/kg): 25 ± 1.32
